Experimental data as given in the CheMixHub drug solubility set.

Experiment: xn = mol fraction of the nth substance listed, in the solute-free solvent

CCCCN1CCCCC1C(=O)Nc1c(C)cccc1C.Cl.O (stereo not given) + CCO + O
solubility (g/100 g solution)
Conditions | 293.15 K | 298.15 K | 303.15 K | 308.15 K | 313.15 K | 318.15 K | 323.15 K | 328.15 K | 333.15 K
x2 = 0.1 | 3.04 | 3.34 | 4.11 | 4.86 | 5.9 | 7.35 | 9.3 | 11.2 | 12.9
x2 = 0.2 | 3.1 | 3.37 | 4.04 | 4.84 | 6.41 | 7.92 | 10.1 | 12.9 | 15.1
x2 = 0.3 | 2.9 | 3.27 | 3.99 | 5.42 | 7.36 | 9.56 | 12.4 | 15.8 | 19
x2 = 0.4 | 2.85 | 3.29 | 4.28 | 5.77 | 7.83 | 10.9 | 14.2 | 18.3 | 22.9
x2 = 0.5 | 2.81 | 3.22 | 4.31 | 5.96 | 8.48 | 11.3 | 14.9 | 19.4 | 23.9
x2 = 0.6 | 3.15 | 3.43 | 4.62 | 6.22 | 8.61 | 11.5 | 15.1 | 19.4 | 23.7
x2 = 0.7 | 3.44 | 3.95 | 5.29 | 7.07 | 9.34 | 12.3 | 16.1 | 20.6 | 25
x2 = 0.8 | 3.84 | 4.16 | 5.55 | 7.29 | 9.54 | 12.4 | 15.9 | 20.2 | 24.7
x2 = 0.9 | 3.83 | 4.34 | 5.57 | 7.26 | 9.51 | 12.2 | 15.5 | 19.6 | 24

CCOC(=O)C1=CC2(CC)CCCN3CCc4c(n1c1ccccc41)C32 (stereo not given) + CCO + O
solubility (g/100 g solution)
Conditions | 283.15 K | 288.15 K | 293.15 K | 298.15 K | 303.15 K | 308.15 K | 313.15 K | 318.15 K | 323.15 K
x2 = 0.2 | 0.00578 | 0.00816 | 0.0113 | 0.0153 | 0.0208 | 0.028 | 0.0375 | 0.0513 | 0.0683
x2 = 0.3 | 0.0454 | 0.0591 | 0.0768 | 0.0954 | 0.12 | 0.153 | 0.185 | 0.238 | 0.304
x2 = 0.4 | 0.106 | 0.138 | 0.178 | 0.211 | 0.277 | 0.346 | 0.421 | 0.524 | 0.668
x2 = 0.5 | 0.184 | 0.235 | 0.301 | 0.37 | 0.468 | 0.586 | 0.726 | 0.921 | 1.12
x2 = 0.6 | 0.257 | 0.331 | 0.43 | 0.52 | 0.639 | 0.824 | 0.996 | 1.25 | 1.54
x2 = 0.7 | 0.335 | 0.418 | 0.546 | 0.661 | 0.831 | 1.04 | 1.3 | 1.61 | 1.97
x2 = 0.8 | 0.372 | 0.479 | 0.612 | 0.757 | 0.941 | 1.21 | 1.47 | 1.87 | 2.26
x2 = 0.9 | 0.363 | 0.466 | 0.609 | 0.766 | 0.951 | 1.23 | 1.5 | 1.94 | 2.39

CN1CCN(C(=O)OC2c3nccnc3C(=O)N2c2ccc(Cl)cn2)CC1 (stereo not given) + CCO + O
solubility (g/100 g solution)
Conditions | x2 = 0.3 | x2 = 0.4 | x2 = 0.5 | x2 = 0.6 | x2 = 0.7 | x2 = 0.8 | x2 = 0.9
288.15 K | 0.129 | 0.242 | 0.377 | 0.527 | 0.59 | 0.511 | 0.375
298.15 K | 0.208 | 0.397 | 0.63 | 0.85 | 0.998 | 0.9 | 0.647
308.15 K | 0.296 | 0.666 | 1.02 | 1.32 | 1.43 | 1.3 | 0.911
318.15 K | 0.474 | 0.988 | 1.51 | 2.03 | 2.31 | 2.12 | 1.53
328.15 K | 0.818 | 1.65 | 2.51 | 3.27 | 3.65 | 3.31 | 2.53

COC(=O)C1=C(C)NC(C)=C(C(=O)OCC(C)C)C1c1ccccc1[N+](=O)[O-] (stereo not given) + CCO + O
solubility (g/100 g solution)
Conditions | 278.15 K | 283.15 K | 288.15 K | 293.15 K | 298.15 K | 303.15 K | 308.15 K | 313.15 K | 318.15 K
x2 = 0.08908 | 0.379 | 0.503 | 0.648 | 0.817 | 0.987 | 1.2 | 1.42 | 1.68 | 1.99
x2 = 0.2068 | 1.23 | 1.53 | 1.87 | 2.25 | 2.73 | 3.28 | 3.94 | 4.74 | 5.64
x2 = 0.3698 | 1.72 | 2.14 | 2.63 | 3.16 | 3.79 | 4.51 | 5.31 | 6.22 | 7.38
x2 = 0.6101 | 2.18 | 2.75 | 3.38 | 4.12 | 5 | 6 | 7.01 | 8.24 | 9.61

CS(=O)(=O)c1ccc(C(O)C(CF)NC(=O)C(Cl)Cl)cc1 (stereo not given) + CCO + O
solubility (g/100 g solution)
Conditions | 278.15 K | 283.15 K | 288.15 K | 293.15 K | 298.15 K | 303.15 K | 308.15 K | 313.15 K | 318.15 K
x2 = 0.04165 | 0.113 | 0.15 | 0.202 | 0.267 | 0.34 | 0.453 | 0.569 | 0.728 | 0.926
x2 = 0.08908 | 0.225 | 0.295 | 0.39 | 0.507 | 0.655 | 0.841 | 1.06 | 1.33 | 1.64
x2 = 0.1436 | 0.376 | 0.498 | 0.639 | 0.817 | 1.03 | 1.29 | 1.6 | 1.99 | 2.41
x2 = 0.2068 | 0.536 | 0.699 | 0.887 | 1.13 | 1.42 | 1.76 | 2.15 | 2.65 | 3.18
x2 = 0.2812 | 0.663 | 0.857 | 1.08 | 1.38 | 1.72 | 2.13 | 2.59 | 3.18 | 3.85
x2 = 0.3698 | 0.77 | 0.998 | 1.27 | 1.6 | 2.01 | 2.48 | 3.02 | 3.69 | 4.43
x2 = 0.4772 | 0.869 | 1.11 | 1.43 | 1.79 | 2.22 | 2.75 | 3.35 | 4.05 | 4.88
x2 = 0.6101 | 0.959 | 1.22 | 1.55 | 1.94 | 2.42 | 2.98 | 3.59 | 4.37 | 5.21
x2 = 0.7788 | 1.01 | 1.3 | 1.62 | 2.05 | 2.53 | 3.08 | 3.75 | 4.55 | 5.42
